Assay results published in US4273777A, “Methods of treating mammals suffering from inflammation and pain” (Laboratorios Bago S.A., priority 1980, dated 1981).

Experiments:
[1] = Influence on the gastro-intestinal tract (ulceration of the gastric epithelium, pylorus ligated, Shay et al.); format: in vivo, rat (Sprague Dawley)
Experimental: Influence on the gastro-intestinal tract
Ten male rats of Sprague Dawley strain, weighing 200-300 g were used for each compound tested. According to the method of Shay et al. (Shay, H., Komapov. S. A., Feb. S. S., Meranir, D., Gruenstein, M., Siplet, H. Gastroenterology 5, 43, 1945), under anesthesia, the pylorus was ligated and 4 hours later test compounds were orally administered. The animal was sacrificed 1 hour after compound administration. The stomach was removed and examined for macroscopic damage. The ulceration of the gastric epithelium was evaluated by the following evaluation: 0=no hemorrhage sites; 1=some isolated hemorrhagic sites; 2=redness of the gastric epithelium; 3=1 to 5 small ulcers with a diameter smaller than 3 mm; 4=many small ulcers; 5=ulcers--greater than 3 mm; 6=perforated ulcer.

[2] = Randall-Selitto test (analgesic activity, carrageenin inflamed foot); format: in vivo, mouse (Rockland); settings: oral, 30 minutes before carrageenin; control (water) 0; doses as for tail pressure (pivaloyloxymethyl TPA ester 166 mg/kg, 66 mg/kg)
Experimental: Randall-Selitto's method: Ten male mice of Rockland strain weighing 25 g were used for each compound tested. 0.1 ml of 1% carrageenin saline suspension was injected into the subplantar region of the right foot. The test compounds were orally administered 30 minutes before the injection. At hourly intervals for 3 hours after the carrageenin injection, the pain threshold for the inflammed feet was measured determining the amount of pressure with an analgesy meter.

[3] = Tail pressure test (analgesic activity); format: in vivo, mouse (Rockland); settings: oral; control (water) 0; dose mg/kg: ASA 100, pivaloyloxymethyl TPA ester 166 and 66, CPA 50, TPA 47, phthalidyl CPA ester 72, pivaloyloxymethyl CPA ester 69, xylyl anthranylates 77 (phthalidyl)/74 (pivaloyloxymethyl), TAA 50, its phthalidyl ester 73.5, pivaloyloxymethyl ester 82
Experimental: Tail pressure test: Ten male mice of Rockland strain weighing 20-25 g were used for each compound tested. The response threshold on applying pressure to the tail was determined with an analgesy meter at 15 and 60 minutes after oral administration of the test compound. The pressure at which a struggle was elicited was read.

[4] = Carrageenin induced edema test (anti-inflammatory activity); set-up: species or system rat (Sprague Dawley); settings: rat, in vivo
Experimental: Anti-inflammatory Activity (Carrageenin induced edema test)
Fifteen to twenty male rats of Sprague Dawley strain weighing 150-200 g, were employed for each compound tested. 0.1 ml of 1% carrageenin saline suspension was injected into the subplantar region of the right hind-paw. The test compounds were orally administered 30 minutes prior to the injection of carrageenin and the foot volume was determined 1, 3 and 5 hours after the injection of carrageenin. The percent swelling in the foot was obtained by comparing the volume before and after the injection of carrageenin, and the rate of inhibition in the treated animals was calculated.

[5] = oral, 1 hour after compound, score 0=no hemorrhage sites to 6=perforated ulcer, control 3.0, dose mg/kg: phenylbutazone 75, ASA 100, TPA 47, pivaloyloxymethyl TPA ester 66, CPA 150, phthalidyl CPA ester 216, pivaloyloxymethyl CPA ester 207, xylyl anthranylates 186/196, TAA 60, its esters 88/84.5
[6] = versus control (distilled water) 3.0, oral

SMILES | Evaluation (ulceration of the gastric epithelium) [1, 5] | Increase (of ulceration evaluation over control) [1, 6] | Evaluation (ulceration of the gastric epithelium) ([1]; rat, in vivo, po) | Increase (of ulceration evaluation over control) ([1]; rat, in vivo, po) | Relative strength, Randall-Selitto test [2] | Relative strength, Tail pressure test [3] | anti-inflammatory activity, in words [4]
O=C(O)c1cccnc1Nc1cccc(C(F)(F)F)c1 [2-(3'-trifluoromethyl-anilino)-3-pyridinecarboxylic acid, reference compound] | 3.9 | 0.9 |  |  |  |  | 
CC(=O)Oc1ccccc1C(=O)O [Acetylsalicylic acid (ASA), Acetylsalicylic acid, reference compound] |  |  | 4.1 | 1.1 |  |  | 
O=C(O)c1ccccc1Nc1cccc(C(F)(F)F)c1 [N-(3'-trifluorotolyl)-anthranylic acid, reference compound] | 4.9 | 1.9 |  |  | 5.3 | 0.5 | 
CCCCC1C(=O)N(c2ccccc2)N(c2ccccc2)C1=O [Phenylbutazone, reference compound] |  |  | 5.5 | 2.5 |  |  | 
Cc1cccc(Nc2ccccc2C(=O)OC2OC(=O)c3ccccc32)c1C (stereo not shown) [Phthalidyl N-(2',3'-xylyl) anthranylate] | 3.3 | 0.3 |  |  | 1.37 | 0.56 | 
O=C(OC1OC(=O)c2ccccc21)c1ccccc1Nc1cccc(C(F)(F)F)c1 (stereo not shown) [Phthalidyl N-(3'-trifluorotolyl) anthranylate] | 3.5 | 0.5 |  |  | 10.6 | 0.74 | 
Cc1c(Cl)cccc1Nc1ncccc1C(=O)OC1OC(=O)c2ccccc21 (stereo not shown) [Phthalydil 2(3'-chloro-2'-methylanilino)pyridine 3-carboxylate] | 3.6 | 0.6 |  |  |  |  | 
Cc1c(Cl)cccc1Nc1ncccc1C(=O)OCOC(=O)C(C)(C)C [Pivaloyloxymethyl 2-(3'-chloro-2'-methylanilino)-pyridine-3-carboxylate] | 3.0 |  |  |  |  |  | 
CC(C)(C)C(=O)OCOC(=O)c1cccnc1Nc1cccc(C(F)(F)F)c1 [Pivaloyloxymethyl 2-(3'-trifluoromethylanilino)-pyridine-3-carboxylate] | 3.2 | 0.2 |  |  |  |  | act as anti-inflammatory agent more than as antinociceptive agents
Cc1cccc(Nc2ccccc2C(=O)OCOC(=O)C(C)(C)C)c1C [Pivaloyloxymethyl N-(2',3'-xylyl) anthranylate] | 3.4 | 0.4 |  |  |  |  | 
CC(C)(C)C(=O)OCOC(=O)c1ccccc1Nc1cccc(C(F)(F)F)c1 [Pivaloyloxymethyl N-(3'-trifluorotolyl) anthranylate] | 3.6 | 0.6 |  |  |  |  | 
